Laboratory results: ChEMBL document CHEMBL3991601, “The target landscape of clinical kinase drugs” (Science, 2017)
Calls of active or inactive are those of the source.

How the values were obtained:
[1] = biological target: Epidermal growth factor receptor (Homo sapiens, UniProt P00533)
[2] = biological target: Glycogen synthase kinase-3 beta (Homo sapiens, UniProt P49841)
[3] = biological target: Dual specificity mitogen-activated protein kinase kinase 1 (Homo sapiens, UniProt Q02750)
[4] = biological target: T1, MAP/microtubule affinity-regulating kinase 4 (Homo sapiens, UniProt Q96L34)
T1 sequence (Q96L34 whole entry): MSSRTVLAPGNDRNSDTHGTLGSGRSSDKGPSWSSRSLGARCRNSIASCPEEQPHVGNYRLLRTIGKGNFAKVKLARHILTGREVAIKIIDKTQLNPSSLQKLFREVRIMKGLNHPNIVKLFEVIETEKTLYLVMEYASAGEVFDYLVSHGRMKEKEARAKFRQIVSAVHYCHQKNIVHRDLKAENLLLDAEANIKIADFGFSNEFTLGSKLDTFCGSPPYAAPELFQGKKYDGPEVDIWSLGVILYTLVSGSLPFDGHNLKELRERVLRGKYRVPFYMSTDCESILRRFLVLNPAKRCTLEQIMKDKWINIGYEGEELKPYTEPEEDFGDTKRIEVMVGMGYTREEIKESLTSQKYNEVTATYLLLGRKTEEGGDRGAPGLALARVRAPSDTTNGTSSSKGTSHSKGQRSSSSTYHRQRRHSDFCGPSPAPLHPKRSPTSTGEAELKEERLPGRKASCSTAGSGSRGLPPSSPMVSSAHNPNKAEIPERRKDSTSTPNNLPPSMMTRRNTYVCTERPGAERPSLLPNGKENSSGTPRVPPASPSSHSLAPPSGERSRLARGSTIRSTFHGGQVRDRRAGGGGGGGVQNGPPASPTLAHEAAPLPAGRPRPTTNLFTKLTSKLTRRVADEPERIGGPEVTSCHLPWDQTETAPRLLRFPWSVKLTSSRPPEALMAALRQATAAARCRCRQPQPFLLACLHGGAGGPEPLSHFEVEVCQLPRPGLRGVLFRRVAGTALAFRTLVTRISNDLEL

[5] = biological target: Hepatocyte growth factor receptor (Homo sapiens, UniProt P08581)
Chain of Hepatocyte growth factor receptor (P08581 whole entry): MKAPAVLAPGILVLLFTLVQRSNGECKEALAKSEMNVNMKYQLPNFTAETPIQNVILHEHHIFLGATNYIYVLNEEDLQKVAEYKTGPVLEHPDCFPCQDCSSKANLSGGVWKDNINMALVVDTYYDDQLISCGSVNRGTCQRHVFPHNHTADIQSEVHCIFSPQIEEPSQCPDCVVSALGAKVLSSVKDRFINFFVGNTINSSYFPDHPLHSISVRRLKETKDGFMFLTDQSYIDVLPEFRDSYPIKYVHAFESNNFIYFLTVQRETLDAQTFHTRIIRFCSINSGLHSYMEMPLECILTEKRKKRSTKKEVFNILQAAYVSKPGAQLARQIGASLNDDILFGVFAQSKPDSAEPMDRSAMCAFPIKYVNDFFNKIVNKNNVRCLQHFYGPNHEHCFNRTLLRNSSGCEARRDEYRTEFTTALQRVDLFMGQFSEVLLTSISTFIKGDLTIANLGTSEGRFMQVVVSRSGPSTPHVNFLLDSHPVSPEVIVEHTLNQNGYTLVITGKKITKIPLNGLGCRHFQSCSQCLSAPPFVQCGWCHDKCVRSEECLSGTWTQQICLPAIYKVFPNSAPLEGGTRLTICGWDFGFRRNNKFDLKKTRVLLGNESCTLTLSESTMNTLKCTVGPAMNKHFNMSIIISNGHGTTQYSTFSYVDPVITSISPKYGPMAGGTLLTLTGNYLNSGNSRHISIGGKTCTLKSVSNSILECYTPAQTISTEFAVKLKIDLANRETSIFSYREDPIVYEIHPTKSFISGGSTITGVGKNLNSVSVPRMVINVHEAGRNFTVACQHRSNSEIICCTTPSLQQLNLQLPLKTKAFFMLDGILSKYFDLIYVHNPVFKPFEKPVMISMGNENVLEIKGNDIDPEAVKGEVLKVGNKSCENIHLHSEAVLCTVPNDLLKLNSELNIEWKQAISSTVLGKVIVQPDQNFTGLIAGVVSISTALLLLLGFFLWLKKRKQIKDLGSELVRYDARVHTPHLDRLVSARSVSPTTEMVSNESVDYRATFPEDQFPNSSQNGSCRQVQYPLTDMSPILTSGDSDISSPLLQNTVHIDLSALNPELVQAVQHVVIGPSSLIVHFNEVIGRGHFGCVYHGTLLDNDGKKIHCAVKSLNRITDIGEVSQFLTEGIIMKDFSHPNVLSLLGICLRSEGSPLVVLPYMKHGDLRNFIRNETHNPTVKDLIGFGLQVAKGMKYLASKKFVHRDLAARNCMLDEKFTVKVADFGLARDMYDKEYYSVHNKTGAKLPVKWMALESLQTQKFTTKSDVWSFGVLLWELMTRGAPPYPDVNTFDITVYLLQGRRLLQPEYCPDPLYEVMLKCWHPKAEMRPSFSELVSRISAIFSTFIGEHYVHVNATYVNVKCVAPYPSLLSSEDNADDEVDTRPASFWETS

[6] = biological target: Membrane-associated progesterone receptor component 1 (Homo sapiens, UniProt O00264)
Chain of Membrane-associated progesterone receptor component 1 (O00264 whole entry): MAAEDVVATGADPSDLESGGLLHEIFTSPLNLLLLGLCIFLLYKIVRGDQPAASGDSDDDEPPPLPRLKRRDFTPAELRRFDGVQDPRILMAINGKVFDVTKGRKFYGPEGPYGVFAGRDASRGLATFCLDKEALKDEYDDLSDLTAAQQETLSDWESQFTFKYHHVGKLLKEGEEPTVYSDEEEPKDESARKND

[7] = biological target: Protein kinase C theta type (Homo sapiens, UniProt Q04759)
Chain of Protein kinase C theta type (Q04759 whole entry): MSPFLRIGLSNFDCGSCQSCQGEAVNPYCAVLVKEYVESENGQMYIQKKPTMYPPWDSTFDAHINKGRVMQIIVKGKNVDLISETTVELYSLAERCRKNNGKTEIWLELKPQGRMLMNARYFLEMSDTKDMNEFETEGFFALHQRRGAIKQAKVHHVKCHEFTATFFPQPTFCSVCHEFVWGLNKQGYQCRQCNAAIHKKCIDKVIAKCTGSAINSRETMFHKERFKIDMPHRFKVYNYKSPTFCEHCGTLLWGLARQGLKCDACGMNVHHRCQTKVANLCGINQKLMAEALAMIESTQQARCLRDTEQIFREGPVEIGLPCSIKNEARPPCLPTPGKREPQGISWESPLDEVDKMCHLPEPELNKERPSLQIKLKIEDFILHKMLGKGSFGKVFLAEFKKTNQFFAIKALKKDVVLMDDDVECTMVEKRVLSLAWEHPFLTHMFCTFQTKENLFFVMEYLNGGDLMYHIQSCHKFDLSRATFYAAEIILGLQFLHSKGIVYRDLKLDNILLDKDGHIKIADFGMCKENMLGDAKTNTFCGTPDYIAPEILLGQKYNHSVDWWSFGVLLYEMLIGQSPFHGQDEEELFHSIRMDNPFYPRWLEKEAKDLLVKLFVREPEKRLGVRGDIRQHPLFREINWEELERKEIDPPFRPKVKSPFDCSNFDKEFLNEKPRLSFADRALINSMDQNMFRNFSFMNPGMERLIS

Myosin-10 = Myosin-10 (Homo sapiens, UniProt P35580)
[8] = biological target: PAS domain-containing serine/threonine-protein kinase (Homo sapiens, UniProt Q96RG2)
[9] = biological target: Rho-associated protein kinase 1 (Homo sapiens, UniProt Q13464)
[10] = biological target: Dual specificity testis-specific protein kinase 1 (Homo sapiens, UniProt Q15569)
Chain of Dual specificity testis-specific protein kinase 1 (Q15569 whole entry): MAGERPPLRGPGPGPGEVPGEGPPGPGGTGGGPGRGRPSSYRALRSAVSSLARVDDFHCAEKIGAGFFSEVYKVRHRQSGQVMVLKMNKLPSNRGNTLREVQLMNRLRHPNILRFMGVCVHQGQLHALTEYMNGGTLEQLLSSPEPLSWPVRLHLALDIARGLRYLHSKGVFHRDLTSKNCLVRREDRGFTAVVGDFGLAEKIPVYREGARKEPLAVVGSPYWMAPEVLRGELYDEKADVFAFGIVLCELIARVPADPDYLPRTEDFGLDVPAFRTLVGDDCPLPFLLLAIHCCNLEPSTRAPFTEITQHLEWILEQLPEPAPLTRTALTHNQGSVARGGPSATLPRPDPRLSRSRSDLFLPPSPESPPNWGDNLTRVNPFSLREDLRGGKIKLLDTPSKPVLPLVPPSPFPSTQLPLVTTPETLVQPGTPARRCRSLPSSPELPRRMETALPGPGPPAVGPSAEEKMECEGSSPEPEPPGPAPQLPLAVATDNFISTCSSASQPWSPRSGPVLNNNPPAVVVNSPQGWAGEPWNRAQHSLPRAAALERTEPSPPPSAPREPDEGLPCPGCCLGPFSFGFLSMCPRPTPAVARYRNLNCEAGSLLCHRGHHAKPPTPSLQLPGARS

[11] = biological target: Dual specificity testis-specific protein kinase 2 (Homo sapiens, UniProt Q96S53)
Chain of Dual specificity testis-specific protein kinase 2 (Q96S53 whole entry): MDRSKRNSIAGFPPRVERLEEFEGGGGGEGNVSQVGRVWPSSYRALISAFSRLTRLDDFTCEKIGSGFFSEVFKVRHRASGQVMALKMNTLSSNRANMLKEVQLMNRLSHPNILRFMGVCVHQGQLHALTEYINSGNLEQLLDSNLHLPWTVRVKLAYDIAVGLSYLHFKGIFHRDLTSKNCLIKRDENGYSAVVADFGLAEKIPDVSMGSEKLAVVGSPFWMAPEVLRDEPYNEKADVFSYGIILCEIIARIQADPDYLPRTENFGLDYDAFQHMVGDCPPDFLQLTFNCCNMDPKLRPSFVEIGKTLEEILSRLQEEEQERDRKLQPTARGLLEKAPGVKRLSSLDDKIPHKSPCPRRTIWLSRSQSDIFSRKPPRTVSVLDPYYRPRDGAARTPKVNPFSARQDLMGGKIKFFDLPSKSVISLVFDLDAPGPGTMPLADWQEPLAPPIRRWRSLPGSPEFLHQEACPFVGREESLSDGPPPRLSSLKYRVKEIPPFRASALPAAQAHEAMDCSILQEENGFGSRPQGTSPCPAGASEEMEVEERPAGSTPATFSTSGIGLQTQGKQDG

[12] = biological target: T2, Isoleucine--tRNA ligase, mitochondrial (Homo sapiens, UniProt Q9NSE4)
T2 sequence (Q9NSE4 whole entry): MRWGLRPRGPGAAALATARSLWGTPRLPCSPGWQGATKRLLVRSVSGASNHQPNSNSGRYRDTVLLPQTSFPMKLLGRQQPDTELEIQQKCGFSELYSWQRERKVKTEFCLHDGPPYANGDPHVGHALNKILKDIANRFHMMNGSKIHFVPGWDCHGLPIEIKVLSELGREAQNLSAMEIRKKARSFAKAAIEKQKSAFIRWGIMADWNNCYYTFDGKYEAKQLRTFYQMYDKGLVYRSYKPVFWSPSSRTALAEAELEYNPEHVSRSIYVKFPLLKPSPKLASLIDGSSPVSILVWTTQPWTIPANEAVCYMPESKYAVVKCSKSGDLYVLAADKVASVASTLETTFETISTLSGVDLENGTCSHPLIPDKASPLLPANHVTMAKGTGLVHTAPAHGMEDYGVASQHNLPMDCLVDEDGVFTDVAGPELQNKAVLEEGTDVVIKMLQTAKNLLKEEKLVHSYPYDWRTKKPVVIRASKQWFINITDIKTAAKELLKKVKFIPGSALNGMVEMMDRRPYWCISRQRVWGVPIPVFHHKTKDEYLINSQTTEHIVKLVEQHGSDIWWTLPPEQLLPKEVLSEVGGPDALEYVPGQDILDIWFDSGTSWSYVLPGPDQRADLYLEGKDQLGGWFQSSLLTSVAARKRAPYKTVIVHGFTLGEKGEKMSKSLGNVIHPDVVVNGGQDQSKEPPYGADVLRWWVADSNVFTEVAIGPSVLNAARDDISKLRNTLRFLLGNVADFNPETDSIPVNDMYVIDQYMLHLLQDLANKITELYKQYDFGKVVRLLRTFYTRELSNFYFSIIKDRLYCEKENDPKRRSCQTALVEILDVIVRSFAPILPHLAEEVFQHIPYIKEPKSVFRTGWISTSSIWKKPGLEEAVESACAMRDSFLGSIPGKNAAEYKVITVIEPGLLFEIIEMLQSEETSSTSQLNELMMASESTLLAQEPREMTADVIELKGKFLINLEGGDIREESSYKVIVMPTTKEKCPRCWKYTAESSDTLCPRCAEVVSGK

[13] = biological target: Uncharacterized aarF domain-containing protein kinase 5 (Homo sapiens, UniProt Q3MIX3)
[14] = biological target: Dual specificity protein kinase CLK2 (Homo sapiens, UniProt P49760)
Chain of Dual specificity protein kinase CLK2 (P49760 whole entry): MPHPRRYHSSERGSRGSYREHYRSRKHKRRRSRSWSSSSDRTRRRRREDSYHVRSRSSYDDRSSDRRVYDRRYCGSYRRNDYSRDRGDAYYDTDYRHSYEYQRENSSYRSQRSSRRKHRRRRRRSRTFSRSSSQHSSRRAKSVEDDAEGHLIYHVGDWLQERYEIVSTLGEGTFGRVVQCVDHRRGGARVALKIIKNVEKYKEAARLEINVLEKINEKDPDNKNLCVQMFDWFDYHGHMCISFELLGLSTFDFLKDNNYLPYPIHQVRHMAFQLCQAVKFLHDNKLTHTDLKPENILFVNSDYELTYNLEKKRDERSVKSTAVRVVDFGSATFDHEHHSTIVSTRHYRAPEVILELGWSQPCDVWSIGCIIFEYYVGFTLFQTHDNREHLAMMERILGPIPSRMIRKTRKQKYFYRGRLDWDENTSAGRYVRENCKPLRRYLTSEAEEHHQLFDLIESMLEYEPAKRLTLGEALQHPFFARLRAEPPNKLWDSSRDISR

[15] = biological target: Dual specificity protein kinase CLK4 (Homo sapiens, UniProt Q9HAZ1)
Note: in the data inactive means no Kd found up to 30 µM.

Chain of Glycogen synthase kinase-3 beta (P49841 whole entry): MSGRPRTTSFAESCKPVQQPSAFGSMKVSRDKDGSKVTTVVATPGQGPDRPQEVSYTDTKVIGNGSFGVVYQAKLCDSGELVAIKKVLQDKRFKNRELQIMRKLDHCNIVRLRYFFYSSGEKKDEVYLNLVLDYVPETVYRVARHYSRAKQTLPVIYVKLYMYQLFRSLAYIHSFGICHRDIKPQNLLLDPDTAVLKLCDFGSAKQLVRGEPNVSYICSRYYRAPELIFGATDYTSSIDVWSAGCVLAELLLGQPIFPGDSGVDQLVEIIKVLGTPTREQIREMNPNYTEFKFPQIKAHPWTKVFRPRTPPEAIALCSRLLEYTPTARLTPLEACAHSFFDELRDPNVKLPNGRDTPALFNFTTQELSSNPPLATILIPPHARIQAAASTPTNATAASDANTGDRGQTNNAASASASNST
Chain of Dual specificity mitogen-activated protein kinase kinase 1 (Q02750 whole entry): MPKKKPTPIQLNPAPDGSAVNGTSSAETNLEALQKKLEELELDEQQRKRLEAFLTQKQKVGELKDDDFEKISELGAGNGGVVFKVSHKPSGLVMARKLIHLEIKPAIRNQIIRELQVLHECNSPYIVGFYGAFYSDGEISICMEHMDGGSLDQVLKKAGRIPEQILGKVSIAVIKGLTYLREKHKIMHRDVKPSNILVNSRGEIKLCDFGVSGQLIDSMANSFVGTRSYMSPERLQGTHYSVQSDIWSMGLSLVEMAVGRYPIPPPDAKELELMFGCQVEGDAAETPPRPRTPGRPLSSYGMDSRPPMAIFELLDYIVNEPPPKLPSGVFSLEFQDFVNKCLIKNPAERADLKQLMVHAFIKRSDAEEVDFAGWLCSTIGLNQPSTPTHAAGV

Kd [1]	Kd [2]	Kd [3]	Kd [4]	Kd [5]	Kd [6]	Kd [7]	Kd (Myosin-10)	Kd [8]	Kd [10]	Kd [11]	Kd [12]	Kd [14]	Structure (SMILES)	Kd [9]	Kd [13]	Kd [15]
> 30 µM (inactive)	8.79 µM	> 30 µM (inactive)	> 30 µM (inactive)	> 30 µM (inactive)	> 30 µM (inactive)	> 30 µM (inactive)	–	–	–	–	–	–	O=c1[nH]c([C@@H]2CCCN2)nc2c1oc1ccc(Cl)cc12	–	–	–
0.225 µM (active)	> 30 µM (inactive)	> 30 µM (inactive)	> 30 µM (inactive)	–	–	> 30 µM (inactive)	–	–	> 30 µM (inactive)	> 30 µM (inactive)	–	–	COc1cccc(Nc2ncnn3ccc(CN4CC[C@@H](N)[C@H](O)C4)c23)c1 [BMS-690514]	–	–	–
–	–	–	–	–	–	–	–	–	–	> 30 µM (inactive)	> 30 µM (inactive)	–	C[C@@]1(C(=O)Nc2ccc(F)nc2)CCCN1c1nc(Nc2cc(C3CC3)n[nH]2)c2cccn2n1 [BMS-754807]	–	–	–
> 30 µM (inactive)	> 30 µM (inactive)	> 30 µM (inactive)	–	0.094 µM	> 30 µM (inactive)	–	> 30 µM (inactive)	> 30 µM (inactive)	> 30 µM (inactive)	–	–	–	CC[C@@](C)(Nc1ccnc(-c2c[nH]c3ncccc23)n1)C(=O)NCC(F)(F)F [DECERNOTINIB]	13.5 µM (active)	–	–
0.602 µM (active)	> 30 µM (inactive)	> 30 µM (inactive)	> 30 µM (inactive)	> 30 µM (inactive)	–	> 30 µM (inactive)	–	–	> 30 µM (inactive)	> 30 µM (inactive)	> 30 µM (inactive)	> 30 µM (inactive)	COc1cc2ncnc3c2cc1OCCCCCN(C)Cc1ccc(Br)cc1N3 [JNJ-26483327]	> 30 µM (inactive)	> 30 µM (inactive)	–
> 30 µM (inactive)	> 30 µM (inactive)	> 30 µM (inactive)	> 30 µM (inactive)	> 30 µM (inactive)	> 30 µM (inactive)	0.006 µM	> 30 µM (inactive)	> 30 µM (inactive)	> 30 µM (inactive)	–	–	> 30 µM (inactive)	FC(F)(F)c1ccc(CNc2ccc(Cc3c[nH]c4ncc(Cl)cc34)cn2)cn1 [PEXIDARTINIB]	> 30 µM (inactive)	–	> 30 µM (inactive)
–	–	–	–	–	–	–	> 30 µM (inactive)	> 30 µM (inactive)	–	> 30 µM (inactive)	–	–	COc1cc2c(N3CCN(C(=O)Nc4ccc(OC(C)C)cc4)CC3)ncnc2cc1OCCCN1CCCCC1 [TANDUTINIB]	–	–	–
> 30 µM (inactive)	> 30 µM (inactive)	> 30 µM (inactive)	> 30 µM (inactive)	> 30 µM (inactive)	> 30 µM (inactive)	> 30 µM (inactive)	–	> 30 µM (inactive)	> 30 µM (inactive)	> 30 µM (inactive)	–	> 30 µM (inactive)	CNC(=O)c1cc(COc2nnc(Nc3ccc(Cl)cc3)c3ccoc23)ccn1 [TELATINIB]	–	–	–

Structure (SMILES)	Kd [1]	Kd [2]	Kd [3]	Kd [4]	Kd [5]	Kd [6]	Kd [7]	Kd (Myosin-10)	Kd [8]	Kd [10]	Kd [11]	Kd [12]	Kd [14]	Kd [9]	Kd [13]	Kd [15]
Cc1c(NC(=O)OC[C@@H]2COCCN2)cn2ncnc(Nc3ccc4c(cnn4Cc4cccc(F)c4)c3)c12 [AC-480]	0.003 µM (active)	> 30 µM (inactive)	> 30 µM (inactive)	> 30 µM (inactive)	> 30 µM (inactive)	–	> 30 µM (inactive)	> 30 µM (inactive)	> 30 µM (inactive)	> 30 µM (inactive)	–	–	–	> 30 µM (inactive)	–	–
CNC(=O)c1ccc(Nc2ncc(C(F)(F)F)c(NCc3nccnc3N(C)S(C)(=O)=O)n2)cc1 [DEFACTINIB]	> 30 µM (inactive)	1.32 µM (active)	> 30 µM (inactive)	> 30 µM (inactive)	> 30 µM (inactive)	> 30 µM (inactive)	> 30 µM (inactive)	–	–	> 30 µM (inactive)	> 30 µM (inactive)	–	> 30 µM (inactive)	> 30 µM (inactive)	> 30 µM (inactive)	–
CCc1nc(C(N)=O)c(Nc2ccc(N3CCC(N4CCN(C)CC4)CC3)c(OC)c2)nc1NC1CCOCC1 [GILTERITINIB]	3.5 µM (active)	> 30 µM (inactive)	–	> 30 µM (inactive)	–	> 30 µM (inactive)	–	–	–	> 30 µM (inactive)	–	–	–	> 30 µM (inactive)	–	> 30 µM (inactive)
